US20020026053A1, “Novel 3-(substituted) -2- indolinones compounds and use thereof as inhibitors of protein kinase activity” (priority 1997, published 2002)

Molecular target: T1, Met receptor (EGFR/Met chimeric cells, EMR) (Homo sapiens, UniProt P08581)
T1 construct: expressed in transfected cells; the other entry of the earlier key: EGFR (P00533, Epidermal growth factor receptor)
Test: Met Autophosphorylation Assay
Format: biochemical
Description: Met Autophosphorylation Assay
This assay determines Met tyrosine kinase activity by analyzing Met protein tyrosine kinase levels on the Met receptor.
a. HNTG (5× stock solution): Dissolve 23.83 g HEPES and 43.83 g NaCl in about 350 ml dH2O. Adjust pH to 7.2 with HCl or NaOH, add 500 ml glycerol and 10 ml Triton X-100, mix, add dH2O to 1 L total volume. To make 1 L of 1× working solution add 200 ml 5× stock solution to 800 ml dH2O, check and adjust pH as necessary, store at 4° C.
b. PBS (Dulbecco's Phosphate-Buffered Saline), Gibco Cat. # 450-1300EB (1× solution).
c. Blocking Buffer: in 500 ml dH2O place 100 g BSA, 12.1 g Tris-pH7.5, 58.44 g NaCl and 10 ml Tween-20, dilute to 1 L total volume.
d. Kinase Buffer: To 500 ml dH2O add 12.1 g TRIS (pH 7.2), 58.4 g NaCl, 40.7 g MgCl2 and 1.9 g EGTA; bring to 1 L total volume with dH2O.
e. PMSF (Phenylmethylsulfonyl fluoride), Sigma Cat. # P-7626, to 435.5 mg, add 100% ethanol to 25 ml total volume, vortex.
f. ATP (Bacterial Source), Sigma Cat. # A-7699, store powder at −20° C.; to make up solution for use, dissolve 3.31 mg in 1 ml dH2O.
g. RC-20H HRPO Conjugated Anti-Phosphotyrosine, Transduction Laboratories Cat. # E120H.
h. Pierce 1-Step Turbo™ B-ELISA (3,3′,5,5′-tetramethylbenzidine, Pierce Cat. # 34022.
i. H2SO4, add 1 ml conc.(18 N) to 35 ml dH2O.
j. TRIS HCL, Fischer Cat. # BP152-5; to 121.14 g of material, add 600 ml MilliQ H2O, adjust pH to 7.5 (or 7.2) with HCl, bring volume to 1 L with MilliQ H2O.
k. NaCl, Fischer Cat. # S271-10, make up 5M solution.
m. Na3VO4, Fischer Cat. # S454-50, to 1.8 g material add 80 ml MilliQ H2O, adjust pH to 10.0 with HCl or NaOH, boil in microwave, cool, check pH, repeat procedure until pH stable at 10.0, add MilliQ H2O to 100 ml total volume, make 1 ml aliquots and store at −80° C.
n. MgCl2, Fischer Cat. # M33-500, make up 1M solution.
o. HEPES, Fischer Cat. # BP310-500, to 200 ml MilliQ H2O, add 59.6 g material, adjust pH to 7.5, bring volume to 250 ml total, sterile filter.
p. Albumin, Bovine (BSA), Sigma Cat. # A-4503, to 30 grams material add sterile distilled water to make total volume of 300 ml, store at 4° C.
q. TBST Buffer: to approx. 900 ml dH2O in a 1 L graduated cylinder add 6.057 g TRIS and 8.766 g NaCl, when dissolved, adjust pH to 7.2 with HCl, add 1.0 ml Triton X-100 and bring to 1 L total volume with dH2O.
r. Goat Affinity purified antibody Rabbit IgG (whole molecule), Cappel Cat. # 55641.
s. Anti h-Met (C-28) rabbit polyclonal IgG antibody, Santa Cruz Chemical Cat. # SC-161.
t. Transiently Transfected EGFR/Met chimeric cells (EMR) (Komada, et al., Oncogene, 8:2381-2390 (1993).
u. Sodium Carbonate Buffer, ([…], Fischer Cat. # S495) to 10.6 g material add 800 ml MilliQ H2O, when dissolved adjust pH to 9.6 with NaOH, bring up to 1 L total volume with MilliQ H2O, filter, store at 4° C.
All of the following steps are conducted at room temperature unless it is specifically indicated otherwise. All ELISA plate washing is by rinsing 4× with TBST.
This procedure can be performed the night before or immediately prior to the start of receptor capture.
1. Quick thaw lysates in a 37° C. waterbath with a swirling motion until the last crystals disappear.
2. Lyse cell pellet with 1× HNTG containing 1 mM PMSF. Use 3 ml of HNTG per 15 cm dish of cells. Add ½ the calculated HNTG volume, vortex the tube for 1 min., add the remaining amount of HNTG, vortex for another min.
3. Balance tubes, centrifuge at 10,000× g for 10 min at 4° C.
4. Pool supernatants, remove an aliquot for protein determination.
5. Quick freeze pooled sample in dry ice/ethanol bath. This step is performed regardless of whether lysate will be stored overnight or used immediately following protein determination.
6. Perform protein determination using standard bicinchoninic acid (BCA) method (BCA Assay Reagent Kit from Pierce Chemical Cat. # 23225).
1. Coat Corning 96 well ELISA plates with 5 μg per well Goat anti-Rabbit antibody in Carbonate Buffer for a total well volume of 50 μl. Store overnight at 4° C. […]

T1 sequence (P08581 with tags, fused parts or gaps): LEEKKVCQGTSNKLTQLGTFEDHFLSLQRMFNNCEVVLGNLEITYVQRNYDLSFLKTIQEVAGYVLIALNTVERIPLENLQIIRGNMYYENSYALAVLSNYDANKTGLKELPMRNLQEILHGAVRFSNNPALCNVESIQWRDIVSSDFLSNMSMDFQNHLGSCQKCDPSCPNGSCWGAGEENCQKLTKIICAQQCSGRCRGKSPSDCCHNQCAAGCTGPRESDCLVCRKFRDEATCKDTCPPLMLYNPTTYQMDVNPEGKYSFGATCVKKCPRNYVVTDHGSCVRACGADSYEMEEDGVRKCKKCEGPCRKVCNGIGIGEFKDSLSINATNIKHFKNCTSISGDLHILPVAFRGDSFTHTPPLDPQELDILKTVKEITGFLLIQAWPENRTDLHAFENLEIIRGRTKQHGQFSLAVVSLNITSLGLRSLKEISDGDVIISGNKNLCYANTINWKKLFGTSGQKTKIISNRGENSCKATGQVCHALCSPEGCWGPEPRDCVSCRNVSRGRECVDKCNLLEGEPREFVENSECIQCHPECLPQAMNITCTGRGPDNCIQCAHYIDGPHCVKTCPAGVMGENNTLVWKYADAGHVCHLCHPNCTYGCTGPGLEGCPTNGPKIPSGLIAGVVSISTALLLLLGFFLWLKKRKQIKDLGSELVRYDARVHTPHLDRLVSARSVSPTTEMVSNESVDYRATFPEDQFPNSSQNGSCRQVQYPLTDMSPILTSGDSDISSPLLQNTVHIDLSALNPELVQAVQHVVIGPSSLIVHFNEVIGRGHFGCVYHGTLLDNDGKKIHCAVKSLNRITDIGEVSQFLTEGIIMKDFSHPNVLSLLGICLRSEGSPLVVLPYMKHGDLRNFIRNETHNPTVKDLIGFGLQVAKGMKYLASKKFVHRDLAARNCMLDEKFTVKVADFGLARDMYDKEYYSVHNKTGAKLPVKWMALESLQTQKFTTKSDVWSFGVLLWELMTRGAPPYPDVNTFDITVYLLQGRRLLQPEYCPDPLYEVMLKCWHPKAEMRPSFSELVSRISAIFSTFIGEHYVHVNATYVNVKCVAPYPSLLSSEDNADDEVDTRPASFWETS

| SMILES | Met Kinase % Inhibition (P.130) [%] |
| --- | --- |
| CCOC(=O)c1c(C)[nH]c(C=C2C(=O)Nc3c(Br)cc(Br)c(C)c32)c1C [10718/H02] | 31.5 |
| COc1cc(Br)c(O)c(C=C2C(=O)Nc3c(Br)cc(Br)c(C)c32)c1 [10718/H03] | 90.8 |
| Cc1c(Br)cc(Br)c2c1C(=Cc1ccc3ccccc3c1O)C(=O)N2 [10718/H04] | 84.3 |
| CCOC(=O)CCc1c(C(=O)OCC)[nH]c(C=C2C(=O)Nc3c(Br)cc(Br)c(C)c32)c1CC(=O)OCC [10718/H05] | 13.5 |
| CCOC(=O)c1cc(C=C2C(=O)Nc3c(Br)cc(Br)c(C)c32)oc1C [10718/H06] | 32.2 |
| COC(=O)c1[nH]c(C)c(C=C2C(=O)Nc3c(Br)cc(Br)c(C)c32)c1C(=O)OC [10718/H07] | 52.7 |
| Cc1c(Br)cc(Br)c2c1C(=Cc1ccc(Cl)c([N+](=O)[O-])c1)C(=O)N2 [10718/H08] | 14.4 |
| CCOc1cccc(C=C2C(=O)Nc3c(Br)cc(Br)cc32)c1O [10734/A02] | 51.1 |
| O=C1Nc2c(Br)cc(Br)cc2C1=Cc1cc(Cl)cc(Cl)c1O [10734/A03] | 87.8 |
| O=C1Nc2c(Br)cc(Br)cc2C1=Cc1cc(Cl)ccc1O [10734/A04] | 68.0 |
| CCN(CC)c1ccc(C=C2C(=O)Nc3c(Br)cc(Br)cc32)c(O)c1 [10734/A05] | 69.9 |
| O=C1Nc2c(Br)cc(Br)cc2C1=Cc1ccc([N+](=O)[O-])cc1 [10734/A06] | 46.9 |
| O=C1Nc2c(Br)cc(Br)cc2C1=Cc1cc(Br)cc(Br)c1O [10734/A07] | 89.3 |
| O=C1Nc2c(Br)cc(Br)cc2C1=Cc1cccc(F)c1O [10734/A08] | 71.5 |
| O=C1Nc2c(Br)cc(Br)cc2C1=Cc1ccc(O)c(Br)c1 [10734/A09] | 88.4 |
| CC(C)(C)c1ccc(C=C2C(=O)Nc3c(Br)cc(Br)cc32)cc1 [10734/A10] | 55.4 |
| O=C1Nc2c(Br)cc(Br)cc2C1=Cc1ccc(Br)s1 [10734/A11] | 51.9 |
| CCOc1cccc(C=C2C(=O)Nc3ccc(I)cc32)c1O [10734/B02] | 61.9 |
| O=C1Nc2ccc(I)cc2C1=Cc1cc(Cl)cc(Cl)c1O [10734/B03] | 90.1 |
| O=C1Nc2ccc(I)cc2C1=Cc1cc(Cl)ccc1O [10734/B04] | 88.4 |
| CCN(CC)c1ccc(C=C2C(=O)Nc3ccc(I)cc32)c(O)c1 [10734/B05] | 67.8 |
| O=C1Nc2ccc(I)cc2C1=Cc1ccc([N+](=O)[O-])cc1 [10734/B06] | 91.2 |
| O=C1Nc2ccc(I)cc2C1=Cc1cc(Br)cc(Br)c1O [10734/B07] | 93.2 |
| O=C1Nc2ccc(I)cc2C1=Cc1cccc(F)c1O [10734/B08] | 56.1 |
| O=C1Nc2ccc(I)cc2C1=Cc1ccc(O)c(Br)c1 [10734/B09] | 94.3 |
| CC(C)(C)c1ccc(C=C2C(=O)Nc3ccc(I)cc32)cc1 [10734/B10] | 82.6 |
| O=C1Nc2ccc(I)cc2C1=Cc1ccc(Br)s1 [10734/B11] | 83.6 |

| SMILES | Met Kinase % Inhibition (P.130) [%] |
| --- | --- |
| CCOc1cccc(C=C2C(=O)Nc3ccc(Br)c(C)c32)c1O [10734/C02] | 78.6 |
| Cc1c(Br)ccc2c1C(=Cc1cc(Cl)cc(Cl)c1O)C(=O)N2 [10734/C03] | 88.2 |
| Cc1c(Br)ccc2c1C(=Cc1cc(Cl)ccc1O)C(=O)N2 [10734/C04] | 90.7 |
| CCN(CC)c1ccc(C=C2C(=O)Nc3ccc(Br)c(C)c32)c(O)c1 [10734/C05] | 52.7 |
| Cc1c(Br)ccc2c1C(=Cc1ccc([N+](=O)[O-])cc1)C(=O)N2 [10734/C06] | 48.3 |
| Cc1c(Br)ccc2c1C(=Cc1cc(Br)cc(Br)c1O)C(=O)N2 [10734/C07] | 96.8 |
| Cc1c(Br)ccc2c1C(=Cc1cccc(F)c1O)C(=O)N2 [10734/C08] | 93.2 |
| Cc1c(Br)ccc2c1C(=Cc1ccc(O)c(Br)c1)C(=O)N2 [10734/C09] | 88.6 |
| Cc1c(Br)ccc2c1C(=Cc1ccc(C(C)(C)C)cc1)C(=O)N2 [10734/C10] | 11.6 |
| Cc1c(Br)ccc2c1C(=Cc1ccc(Br)s1)C(=O)N2 [10734/C11] | 23.9 |
| CCOc1cccc(C=C2C(=O)Nc3ccc(S(=O)(=O)NC)cc32)c1O [10734/D02] | 46.0 |
| CNS(=O)(=O)c1ccc2c(c1)C(=Cc1cc(Cl)cc(Cl)c1O)C(=O)N2 [10734/D03] | 78.6 |
| CNS(=O)(=O)c1ccc2c(c1)C(=Cc1cc(Cl)ccc1O)C(=O)N2 [10734/D04] | 46.9 |
| CCN(CC)c1ccc(C=C2C(=O)Nc3ccc(S(=O)(=O)NC)cc32)c(O)c1 [10734/D05] | 55.0 |
| CNS(=O)(=O)c1ccc2c(c1)C(=Cc1ccc([N+](=O)[O-])cc1)C(=O)N2 [10734/D06] | 30.6 |
| CNS(=O)(=O)c1ccc2c(c1)C(=Cc1cc(Br)cc(Br)c1O)C(=O)N2 [10734/D07] | 92.0 |
| CNS(=O)(=O)c1ccc2c(c1)C(=Cc1cccc(F)c1O)C(=O)N2 [10734/D08] | 49.8 |
| CNS(=O)(=O)c1ccc2c(c1)C(=Cc1ccc(O)c(Br)c1)C(=O)N2 [10734/D09] | 88.0 |
| CNS(=O)(=O)c1ccc2c(c1)C(=Cc1ccc(C(C)(C)C)cc1)C(=O)N2 [10734/D10] | 20.6 |
| CNS(=O)(=O)c1ccc2c(c1)C(=Cc1ccc(Br)s1)C(=O)N2 [10734/D11] | 33.9 |
| CCOc1cccc(C=C2C(=O)Nc3ccc(S(=O)(=O)Nc4ccc(C(F)(F)F)cc4)cc32)c1O [10734/E02] | 66.9 |
| O=C1Nc2ccc(S(=O)(=O)Nc3ccc(C(F)(F)F)cc3)cc2C1=Cc1cc(Cl)cc(Cl)c1O [10734/E03] | 99.3 |
| O=C1Nc2ccc(S(=O)(=O)Nc3ccc(C(F)(F)F)cc3)cc2C1=Cc1cc(Cl)ccc1O [10734/E04] | 88.9 |
| CCN(CC)c1ccc(C=C2C(=O)Nc3ccc(S(=O)(=O)Nc4ccc(C(F)(F)F)cc4)cc32)c(O)c1 [10734/E05] | 63.6 |
| O=C1Nc2ccc(S(=O)(=O)Nc3ccc(C(F)(F)F)cc3)cc2C1=Cc1ccc([N+](=O)[O-])cc1 [10734/E06] | 50.6 |
| O=C1Nc2ccc(S(=O)(=O)Nc3ccc(C(F)(F)F)cc3)cc2C1=Cc1cc(Br)cc(Br)c1O [10734/E07] | 100.8 |
